ChEMBL document CHEMBL3588777, “Acetate-Derived Metabolites from the Brown Alga Lobophora variegata” (2015)
In brackets after ≈: the same amount, converted by molar mass.

Tested on: Staphylococcus aureus
Test: Antibacterial activity against Staphylococcus aureus ATCC 25923 assessed as inhibition of bacterial growth at 100 ug/mL incubated at 37 degC for 24 hrs by broth microdilution assay
Type: functional
Conditions: ATCC 25923, 24 h

Compared with `CCCCCCCCCCCC1=C(C(C)=O)C(=O)C[C@@H](O)C1`, `CCCCCCCCCCCc1cccc(O)c1C(C)=O` is lower in inhibition at 100 µg/mL: 100% for the first, 65% for the second.

First: CCCCCCCCCCCc1cc(O)cc(O)c1C(C)=O
Second: CCCCCCCCCCCC1CC=C/C(=C\C(C)=O)O1 (stereo not given)
The inhibition at 100 µg/mL of the first is higher: 17% for the first, -95% for the second.

Compared with `CCCCCCCCCCC[C@H](O)C[C@H]1CC(=O)C=C(C)O1`, `CCCCCCCCCCCC1CC=C/C(=C/C(C)=O)O1` (stereo not given) is lower in inhibition at 100 µg/mL: -8.5% for the first, -57% for the second.

For `CCCCC/C=C\C/C=C\CCCCCCCC(=O)/C=C(/C)O`, the inhibition at 100 µg/mL was -17%.

Tested on: Escherichia coli
Test: microbe, parasite or virus in culture
Conditions: ATCC 25922, 24 h
Description: Antibacterial activity against Escherichia coli ATCC 25922 assessed as inhibition of bacterial growth incubated at 37 degC for 24 hrs by broth microdilution assay

`O=C(O)c1cn(C2CC2)c2cc(N3CCNCC3)c(F)cc2c1=O` [CIPROFLOXACIN] was tested, and the MIC90 was 0.016 µg/mL (≈ 0.0483 µM).

Tested on: Enterococcus faecalis
Test: Antibacterial activity against Enterococcus faecalis ATCC 29212 assessed as inhibition of bacterial growth at 100 ug/mL incubated at 37 degC for 24 hrs by broth microdilution assay
Type: functional
Conditions: ATCC 29212, 24 h

Compared with `CCCCCCCCCCCC1=C(C(C)=O)C(=O)C[C@@H](O)C1`, `CCCCCCCCCCCc1cccc(O)c1C(C)=O` is lower in inhibition at 100 µg/mL: 23% for the first, -1% for the second.

Going from `CCCCCCCCCCCc1cc(O)cc(O)c1C(C)=O` to `CCCCCCCCCCCC1CC=C/C(=C\C(C)=O)O1` (stereo not given), the inhibition at 100 µg/mL rises from -9.8% to 21%.

Going from `CCCCCCCCCCC[C@H](O)C[C@H]1CC(=O)C=C(C)O1` to `CCCCCCCCCCCC1CC=C/C(=C/C(C)=O)O1` (stereo not given), the inhibition at 100 µg/mL falls from 23% to 19%.

`CCCCC/C=C\C/C=C\CCCCCCCC(=O)/C=C(/C)O` was tested, and the inhibition at 100 µg/mL was -10%.

Tested on: Staphylococcus aureus
Test: Antibacterial activity against Staphylococcus aureus ATCC 25923 assessed as inhibition of bacterial growth incubated at 37 degC for 24 hrs by broth microdilution assay
Type: functional
Conditions: ATCC 25923, 24 h

First: CCCCCCCCCCCC1=C(C(C)=O)C(=O)C[C@@H](O)C1
Second: O=C(O)c1cn(C2CC2)c2cc(N3CCNCC3)c(F)cc2c1=O [CIPROFLOXACIN]
The MIC90 of the first is 50-fold higher: 25 µg/mL (≈ 81 µM) for the first, 0.5 µg/mL (≈ 1.51 µM) for the second.

Tested on: Escherichia coli
Test: Antibacterial activity against Escherichia coli ATCC 25922 assessed as inhibition of bacterial growth at 100 ug/mL incubated at 37 degC for 24 hrs by broth microdilution assay
Type: functional
Conditions: ATCC 25922, 24 h

Going from `CCCCCCCCCCCC1=C(C(C)=O)C(=O)C[C@@H](O)C1` to `CCCCCCCCCCCc1cccc(O)c1C(C)=O`, the inhibition at 100 µg/mL falls from 29% to -3.3%.

Going from `CCCCCCCCCCCc1cc(O)cc(O)c1C(C)=O` to `CCCCCCCCCCCC1CC=C/C(=C\C(C)=O)O1` (stereo not given), the inhibition at 100 µg/mL rises from -1% to 15%.

First: CCCCCCCCCCC[C@H](O)C[C@H]1CC(=O)C=C(C)O1
Second: CCCCCCCCCCCC1CC=C/C(=C/C(C)=O)O1 (stereo not given)
The inhibition at 100 µg/mL of the first is higher: 27% for the first, 25% for the second.

`CCCCC/C=C\C/C=C\CCCCCCCC(=O)/C=C(/C)O` showed an inhibition at 100 µg/mL of -2.4%.

Tested on: Enterococcus faecalis
Test: microbe, parasite or virus in culture
Conditions: ATCC 29212, 24 h
Description: Antibacterial activity against Enterococcus faecalis ATCC 29212 assessed as inhibition of bacterial growth incubated at 37 degC for 24 hrs by broth microdilution assay

With `O=C(O)c1cn(C2CC2)c2cc(N3CCNCC3)c(F)cc2c1=O` [CIPROFLOXACIN] the MIC90 was 1 µg/mL (≈ 3.02 µM).
